Experimental data reported in US12611406B2, “Oxopiperazine derivatives for the treatment of cancer” (Inthera Bioscience AG, priority 2020, dated 2026).
“Also recorded” adds a separate entry of the source. Read-outs that look alike come from different tables or passages of the source.

What was measured:
PR6511 = PR6511 mouse PDX prostate cancer model, daily oral; type: in vivo
Procedure: PR6511 represents a model which was not responsive any more to enzalutamide treatment. The dose in the 10 mg/kg group was reduced to 3 mg/kg from day 51 onwards. […] QD: once daily treatment. po: per os.
Due to weight loss, animals of the 10 mg/kg group received a reduced dose of 3 mg/kg on study days 51 to 57.

[1] = 28-day once weekly oral repeated-dose DRF TK study in Beagle dogs (mesylate salt), plasma; type: in vivo; settings: for AUC / Cmax: both sexes, Beagle, dog, plasma, po
Procedure: The objective of the study was to determine the TK profile of Compound 1 following 4 weekly oral administrations to Beagle dog and to assess reversibility of any changes following a 13-day recovery period.
The test item Compound 1 (mesylate salt) was administered in 4 weekly doses by oral gavage to groups of Beagle dogs (n=2/sex/group) at dose levels of 10, 15, and 20 mg/kg bodyweight per week. A suspension of 0.5% methylcellulose (w/v) in sterile water served as vehicle. Blood samples for PK analysis were collected for each dosing day (Day 1, 8, 15, and 22) at pre-dose, 0.25, 0.5, 1, 2, 4, 6, 8, 12, and 24 hours after administration.
Total plasma concentrations of Compound 1 were analyzed using a qualified LC-MS/MS method.
Dosing at 15 mg/kg/adm was limited to 2 weekly doses, since animals were subjected to necropsy investigation 3 days after the second dose (Day 8) in order to investigate possible macroscopic changes during the treatment period. n.d.: not determined. AUC parameters were calculated using GraphPad Prism version 9.

[2] = 5-day daily intravenous repeated-dose TK study in CD-1 mice (mesylate salt); type: in vivo; settings: for half-life: both sexes, CD-1, mouse, blood, intravenous
Procedure: The aim of the present study was to explore the TK of Compound 1 after 5 days of once daily intravenous dosing in male and female CD-1 mice, with a subsequent recovery phase of 9 days.
Compound 1 (mesylate salt) was administered once daily for 5 consecutive days by intravenous injection to groups of CD-1 mice (n=8/sex/group) at dose levels of 0 (control), 0.5, 2, 6, or 12 mg/kg/day. A suspension of 0.5% methylcellulose (w/v) in sterile water was used as vehicle. Blood samples were collected for hematology, clinical chemistry (Day 6 and 15), and pharmacokinetics evaluation.

[3] = Plasma protein binding, equilibrium dialysis; type: in vitro ADME; settings: 37° C, buffer pH 7.4, read-out: Fraction unbound (Fu), Mean
Procedure: Protein binding of Compound 1 to the plasma from several species, i.e., human, cynomolgus monkey, dog, rat, and mouse was investigated in vitro by incubation in plasma and determination of unbound fraction of Compound 1 using equilibrium dialysis. Compound 1 was incubated in 100% species-specific plasma and added to one side of the membrane in an equilibrium dialysis system while buffer (pH 7.4) is added to the other side. The system was allowed to reach equilibrium at 37° C. Compound concentration on both sides of the membrane is measured by liquid chromatography—tandem mass spectroscopy (LC-MS/MS).

[4] = 5 consecutive days oral toxicity study in CD-1 mice; type: in vivo; settings: 30 mg/kg/day orally once daily for 5 consecutive days
Procedure: The toxicity of Compound 1 was assessed for several dosing regimens for CD-1 mice, Beagle dogs, and cynomolgus monkeys.

A549 NSCLC cells = experiment: Cell cycle FACS analysis; type: cell-based; settings: A549, wild-type Rb and p53; 20 or 200 nM, 24 h
Procedure: (§1) Cell cycle phase distribution in control (C) cells or cells treated at 20 or 200 nM Compound 1 for 24 hours (24 h) determined by fluorescence activated cell sorting (FACS) analysis, and detection of histone H2A variant H2A.X phosphorylation (γH2A.X, also referred to herein as gamma H2A.X or γH2A.X) by Western blot as DNA damage biomarker.
(§2) In FIG. 3A, protein amounts were normalized using total protein load with ImageLab 6.0 Software (BioRad).

[5] = test system: human enzymes, transporters, kinases, receptors and ion channels; experiment: In vitro safety pharmacology panels
Procedure: Compound 1 was tested using in vitro safety pharmacology panels encompassing human enzymes, transporters, kinases, receptors and ion channels thought to be potential contributors to adverse drug reactions.

DU-145 = experiment: γH2A.X Western blot (DNA damage biomarker); type: cell-based; settings: 20 or 200 nM, 24 h
Procedure: as §1
(§3) The observed accumulation of DNA damage upon tumor cell exposure to Compound 1, measured as an increase of the DNA damage biomarker γH2A.X (FIG. 3A), is in line with reports of p300/CBP being involved in DNA replication and DNA damage repair (DDR). […] Among these DDR proteins are ATR (ataxia telangiectasia and Rad3-related), which controls crucial cell cycle and repair checkpoints, but also nibrin (NBS1), and poly(ADP-ribose) polymerase 1 (PARP-1).
as §2

NCI-H82 = experiment: γH2A.X Western blot (DNA damage biomarker); type: cell-based; settings: 20 or 200 nM, 24 h
Procedure: as §1, §3, §2

NCI-H69 = experiment: γH2A.X Western blot (DNA damage biomarker); type: cell-based; settings: 20 or 200 nM, 24 h
Procedure: as §1, §3, §2

[6] = 10 mg/kg (3 mg/kg on days 51-57) once daily
[7] = 10 mg/kg, 10 mg/kg weekly, Day 1
[8] = 10 mg/kg, 10 mg/kg weekly, Day 8
[9] = 10 mg/kg, 10 mg/kg weekly, Day 15
[10] = 10 mg/kg, 10 mg/kg weekly, Day 22
[11] = 15 mg/kg, 15 mg/kg weekly, Day 1
[12] = 15 mg/kg, 15 mg/kg weekly, Day 8

Compound: CC(C)C[C@@H]1NCCN([C@@H](CC(C)C)C(=O)N2CCC3(C[C@@H]2C)OCC(CN2CCCC2)CO3)C1=O (stereo partly drawn) [Compound 1, (S)-3-isobutyl-1-((S)-4-methyl-1-((S)-8-methyl-3-(pyrrolidin-1-ylmethyl)-1,5-dioxa-9-azaspiro[5.5]undecan-9-yl)-1-oxopentan-2-yl)piperazin-2-one]
- complete responders (PR6511; 6 mg/kg once daily): 3/8
- partial responder (PR6511; 6 mg/kg once daily): 2/8
- tumor-free survivors (PR6511; 6 mg/kg once daily): 3/8
- complete responders (PR6511; [6]): 4/8
- partial responders (PR6511; [6]): 2/8
- tumor-free survivors (PR6511; [6]): 3/8
- tumor response (PR6511; 10 mg/kg for approx. 8-10 days, then breaks/3 mg/kg days 51-57): full tumor regressions
- tumor re-growth (PR6511; 3 weeks after end of treatment, fully regressed tumors): no re-growth of tumors
- tumor response (PR6511; 6 or 10 mg/kg daily oral, study days 38-57): substantial tumor regressions up to erradication of tumors
- PSA in blood (PR6511; PR6511): effective PSA reduction
- clinical signs ([1]; 15 mg/kg/adm, limited to 2 oral doses (Days 1 and 8)): reduced food and water intake
- AUC [1, 7]: 1720 ng·h/mL
- Cmax [1, 7]: 536 ng/mL
- AUC [1, 8]: 1590 ng·h/mL
- Cmax [1, 8]: 512 ng/mL
- AUC [1, 9]: 1660 ng·h/mL
- Cmax [1, 9]: 497 ng/mL
- AUC [1, 10]: 1170 ng·h/mL
- Cmax [1, 10]: 360 ng/mL
- AUC [1, 11]: 2630 ng·h/mL
- Cmax [1, 11]: 752 ng/mL
- AUC [1, 12]: 2300 ng·h/mL
- Cmax [1, 12]: 506 ng/mL
- AUC ([1]; 20 mg/kg, Day 1): 3010 ng·h/mL
- Cmax ([1]; 20 mg/kg, Day 1): 994 ng/mL
- tolerability ([1]; single oral administration of 20 mg/kg/adm, 20 mg/kg): serious adverse event (SAE) on day 5; also recorded: not tolerated in one female Beagle dog
- tolerability ([1]; weekly oral for 4 consecutive weeks at 10 mg/kg/adm): tolerated
- group mean initial blood concentration (CO) ([2]; 0.5 mg/kg/day, Day 1): 111 ng/mL
- CO ([2]; 0.5 mg/kg/day, Day 5, female): 112 ng/mL
- CO ([2]; 0.5 mg/kg/day, Day 5, male): 191 ng/mL
- group mean initial blood concentration (CO) ([2]; 2 mg/kg/day, Day 1): 386 ng/mL
- CO ([2]; 2 mg/kg/day, Day 5, female): 391 ng/mL
- CO ([2]; 2 mg/kg/day, Day 5, male): 275 ng/mL
- group mean initial blood concentration (CO) ([2]; 6 mg/kg/day, Day 1): 1257 ng/mL
- CO ([2]; 6 mg/kg/day, Day 5, female): 641 ng/mL
- CO ([2]; 6 mg/kg/day, Day 5, male): 778 ng/mL
- group mean initial blood concentration (CO) ([2]; 12 mg/kg/day, Day 1): 1725 ng/mL
- CO ([2]; 12 mg/kg/day, Day 5, female): 1548 ng/mL
- CO ([2]; 12 mg/kg/day, Day 5, male): 1531 ng/mL
- tolerability ([2]; 0.5, 2, 6, and 12 mg/kg/day intravenously once daily for 5 consecutive days): well tolerated; also recorded: well-tolerated
- half-life ([2]; all groups, Day 1, read-out: terminal half-life): 1.1 to 1.3 h
- half-life ([2]; over the dose interval, Day 5, read-out: elimination half-life): 1.1 to 1.9 h
- fraction unbound ([3]; dog plasma): 0.619
- fraction unbound ([3]; human plasma): 0.547
- fraction unbound ([3]; mouse plasma): 0.574
- fraction unbound ([3]; rat plasma): 0.528
- tolerability [4]: well-tolerated
- cell cycle response (A549 NSCLC cells): arrested in G1-phase
- responses in safety pharmacology panels [5]: No significant responses were detected
- DNA damage marker γH2A.X (DU-145): accumulation of the DNA damage marker γH2A.X
- DNA damage marker γH2A.X (NCI-H82): accumulation of the DNA damage marker γH2A.X
- DNA damage marker γH2A.X (NCI-H69): accumulation of the DNA damage marker γH2A.X
